Measured values taken from patent US5290776A, “Azole derivatives” (Imperial Chemical Industries, PLC, priority 1991, dated 1994).

What was measured:
[1] = system: vasodilation response during twitch contraction of skeletal muscle; experiment: Anaesthetised cat exercise hyperaemia test; assay type: in vivo; conditions: 10 mg.kg^-1
Procedure: (f) Anaesthetised cat exercise hyperaemia test
This test involves assessment of the effect of a test compound to antagonise the vasodilation response which occurs during twitch contraction of skeletal muscle. The vasodilation is mediated partly by the release of endogenous adenosine from the contracting skeletal muscle.
Cats (2.4-3.6 kg) are anaesthetised with sodium pentobarbitone (50 mg.kg^-1 ip). The following blood vessels are catheterized: left jugular vein (for infusion of anaesthetic, at approximately […] as a 6 mg.ml^-1 solution in isotonic saline), right external jugular vein (for administration of drugs and test compounds), right common carotid artery (for measurement of systemic arterial blood pressure and pulse rate) and right brachial artery (for withdrawal of blood).
Blood flow to the left hind limb is measured with an electromagnetic flow probe around the left external iliac artery. The whole of the left hind limb is made to contract at 3 Hz for 20 minutes duration by stimulating the sciatic and femoral nerves. Active tension produced by the extensor digitorum longus and peroneous longus muscles is measured isometrically with a force transducer. Exercise is repeated twice within the same animal, in either the absence or presence of the test compound. Test compounds are assessed for their ability to reduce the vasodilation during skeletal muscle contraction.

[2] = system: adenosine receptor known as A2; experiment: Guinea-pig Aortic Constriction Test; assay type: cell-based; conditions: antagonism of adenosine attenuation of phenylephrine induced constriction, guinea-pig aortic ring
Description: (b) Guinea-pig Aortic Constriction Test
This test has been described by Collis et al. (British J. Pharmacology, 1989, 97, 1274-1278) and involves the assessment of the ability of a test compound to antagonise the attenuatory effect of adenosine on phenylephrine induced constriction of a guinea-pig aortic ring preparation, an effect mediated via the adenosine receptor known as A2.
The aortic ring preparation is obtained as follows:
Sections (3-5 mm) of guinea pig thoracic aorta (from Dunkin Hartley strain, 250-400 g males) are mounted in organ baths containing oxygenated Krebs solution (95% O2 : 5% CO2) at 37° C. [The nucleoside transport inhibitor, dipyridamole (10 μM) is present in the Krebs solution]. The isometric tension development is recorded and the tissue placed under a resting tension of 1 g and allowed to equilibrate for 1 hour. […] Adenosine is next added cumulatively (10^-7 M to 10^-3 M) and the evoked relaxation is measured. […]
Test compounds are assessed by plotting the percentage relaxation observed against the logarithm of the adenosine concentration, competitive adenosine antagonism producing a parallel shift in the standard adenosine concentration/relaxation (dose response) curve. […] The pA2 value, which is an estimate of the concentration of antagonist to give a dose ratio of 2, may also be calculated using a standard computation technique.

A2 Adenosine receptor = target: T1, A2 Adenosine receptor (Rattus norvegicus, UniProt P30543); experiment: A2 Adenosine receptor affinity test ([3H]-NECA displacement, PC12 membranes); assay type: binding; conditions: displacement of [3H]-NECA from rat PC12 cell membranes
T1 construct: membrane preparations derived from the rat phaeochromocytoma cell line PC 12; host or cells: PC 12 (rat phaeochromocytoma), membranes
T1 sequence (P30543 whole entry): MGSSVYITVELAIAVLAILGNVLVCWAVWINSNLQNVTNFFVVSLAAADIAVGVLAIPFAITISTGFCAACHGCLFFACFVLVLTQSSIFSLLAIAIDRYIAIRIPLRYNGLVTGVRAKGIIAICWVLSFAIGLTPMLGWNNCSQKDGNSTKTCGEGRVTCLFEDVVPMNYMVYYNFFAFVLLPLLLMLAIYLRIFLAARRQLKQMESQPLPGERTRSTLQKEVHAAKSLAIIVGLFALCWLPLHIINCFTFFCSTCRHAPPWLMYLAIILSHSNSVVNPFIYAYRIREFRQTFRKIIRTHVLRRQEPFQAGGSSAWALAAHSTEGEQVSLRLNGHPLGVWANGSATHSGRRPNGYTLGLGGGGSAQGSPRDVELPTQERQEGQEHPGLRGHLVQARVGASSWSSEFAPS
Procedure: The membrane preparation is obtained as follows: Frozen pellets of PC12 cells are washed twice with ice cold, buffered, physiological saline and the cells recovered by centrifugation (1500 G) at 3° C. The separated cells are then suspended in hypotonic solution (distilled water), allowed to stand on ice for 30 minutes and are then carefully homogenized using a standard high-speed homogeniser with periodic ice-cooling to obtain a fine suspension. […] The mixture is then incubated at 37° C. After 20 minutes, the reaction is terminated by dilution with ice-cold buffer and transfer onto ice. The material obtained containing the cell membranes is recovered by centrifugation and washed by resuspension in buffer and recentrifugation. The pellet produced is then resuspended in ice-cold buffer using a hand-driven homogenizer. The resultant membrane suspension is frozen and stored under liquid nitrogen until required.
After incubation, the samples are rapidly filtered over glass-fibre mats and the filter mats are washed to remove non-receptor-bound radioligand. Receptor-bound radioligand entrapped on the filter mats is then determined by liquid scintillation counting. […] The specific binding (defined as the difference between the total binding and the non-specific binding) in the presence of the particular test compound is determined and compared with the control value.

[3] = target: T2, adenosine receptor known as A1 (Cavia porcellus, UniProt P47745); experiment: Guinea-pig Atrial Bradycardic Test; assay type: cell-based; conditions: antagonism of bradycardic effect of 2-chloroadenosine, beating guinea-pig atrial preparation; read-out: pA2 (converted)
T2 construct: Atrial pairs are obtained from guinea-pigs; from tissue; host or cells: guinea-pig atrial pairs (Dunkin Hartley)
T2 sequence (P47745 1-326): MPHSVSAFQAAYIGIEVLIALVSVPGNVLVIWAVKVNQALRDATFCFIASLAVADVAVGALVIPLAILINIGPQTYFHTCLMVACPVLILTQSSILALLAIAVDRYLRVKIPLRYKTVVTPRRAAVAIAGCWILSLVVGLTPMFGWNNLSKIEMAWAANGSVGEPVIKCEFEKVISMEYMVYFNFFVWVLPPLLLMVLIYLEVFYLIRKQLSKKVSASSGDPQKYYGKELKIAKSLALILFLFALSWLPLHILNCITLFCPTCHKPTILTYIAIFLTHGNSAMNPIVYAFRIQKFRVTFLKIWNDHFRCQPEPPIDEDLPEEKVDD
Procedure: (c) Guinea-pig Atrial Bradycardic Test
The spontaneously beating atria are then placed under a resting tension of 1 g and allowed to equilibrate for 50 minutes with continuous overflow. Overflow is then stopped and adenosine deaminase (1 Unit/ml) added to prevent the accumulation of endogenously produced adenosine. […] After washout during 30 minutes, adenosine deaminase is readministered to the bath which is allowed to equilibrate for 15 minutes. A 10^-5 M solution of the test compound in DMSO is then added to the bath which is left to incubate for 30 minutes. Any effect on the beating rate due to the test compound is noted before the dose response curve to 2-chloroadenosine is repeated. Compounds which are adenosine antagonists attenuate the 2-chloroadenosine response.
Test compounds are assessed by comparing dose response curves to 2-chloroadenosine alone with those obtained in the presence of the compound. Competitive adenosine antagonists produce a parallel shift in the 2-chloroadenosine dose response curve. […] The pA2 is then obtained in an analogous manner to that referred to in (b) above.

Row | SMILES | inhibition of vasodilation during skeletal muscle contraction [1] | pA2 [2] | IC50 (A2 Adenosine receptor) [nM] | Kb [3] [nM]
1 | Cn1c(=O)c2[nH]cnc2n(C)c1=O [1,3-dimethylxanthine] | significant inhibition | about 5 |  | 
2 | Nc1nc(-c2ccccc2)nc2nc(-c3ccco3)nn12 [Example 1, 7-amino-2-(2-furyl)-5-phenyl-[1,2,4]-triazolo[1,5-a][1,3,5]triazine] |  |  | ~25.1 | 39.8
